Assays:
HCT116 cells = experiment: Inhibition of the cell proliferation of HCT116 cells (14C-thymidine incorporation); assay type: cell-based; conditions: Homo sapiens, HCT-116, 96 hours
Experimental: The antiproliferative activity of the products of the examples of Table 1 was determined by measuring the inhibition of the cell proliferation of HCT116 cells. The cells are seeded into a cell culture medium at a concentration of 10 000 cells per well, in 0.17 ml of medium, and 20 μl of test product, at various concentrations and 10 μl of thymidine [methyl-14C] (100 μCi/ml—specific activity 47.90 mCi/mmol; NEN Technologies reference NEC568 batch 3550-001) are added and the cells are then incubated at 37° C. and 5% CO2.
Medium used for the HCT116 cell culture: DMEM medium, 2 mM L-glutamine, 200 IU/ml penicillin, 200 μg/ml streptomycin and 10% (V/V) foetal calf serum (Life Technologies).
After 96 hours, the ^14C-thymidine incorporation is counted in a 1450 Microbeta Wallac Trilux liquid scintillation counter. The results R are expressed in cpm (counts per minute) and converted to percentage growth inhibition GI % by firstly subtracting the mean of the number of cpm of the wells without cells B and then dividing by the number of cpm of the wells of the nontreated cells C comprising 20 μl of product diluting medium containing 1% of ethanol (GI %=(R−B)×100/C %).
The IC50 values are calculated using equation 205 of the XLFit software (IDBS company, UK) by nonlinear regression analysis using the Marquardt algorithm (Donald W. MARQUARDT, J. Soc. industry. appl, vol 11, No. 2, June, 1963).

in vitro = conditions: human, Caco-2

Row | SMILES | IC50 (HCT116 cells) | Papp (in vitro)
1 | CO[C@@H](C(=O)N[C@H]1CCc2cc(-c3ccccc3)ccc2NC1=O)[C@H](O)[C@@H](O)[C@H](O)/C=C/C(C)(C)C [Example 4a, (2R,3R,4S,5R,6E)-3,4,5-trihydroxy-2-methoxy-8,8-dimethyl-N-[(3S)-2-oxo-7-phenyl-2,3,4,5-tetrahydro-1H-1-benzazepin-3-yl]non-6-enamide] | 14 nM | 4.8 ×10⁻⁶ cm/s
2 | CO[C@@H](C(=O)NC1CCc2cc(Br)ccc2NC1=O)[C@H](O)[C@@H](O)[C@H](O)/C=C/C(C)(C)C (stereo partly drawn) [Example 3, N-(7-bromo-2-oxo-2,3,4,5-tetrahydro-1H-1-benzazepin-3-yl)-(E)-(2R,3R,4S,5R)-3,4,5-trihydroxy-2-methoxy-8,8-dimethylnon-6-enamide] | 58 nM | –
3 | CO[C@@H](C(=O)N[C@H]1CCc2cc(Br)ccc2NC1=O)[C@H](O)[C@@H](O)[C@H](O)/C=C/C(C)(C)C [Example 3a] | 32 nM | –
4 | CO[C@@H](C(=O)NC1CCc2ccccc2N(C)C1=O)[C@H](O)[C@@H](O)[C@H](O)/C=C/C(C)(C)C (stereo partly shown) [Example 2] | 15 nM | –
5 | CO[C@@H](C(=O)NC1CCc2cc(-c3ccccc3)ccc2NC1=O)[C@H](O)[C@@H](O)[C@H](O)/C=C/C(C)(C)C (stereo partly drawn) [Example 4, N-(7-phenyl-2-oxo-2,3,4,5-tetrahydro-1H-1-benzazepin-3-yl)-(E)-(2R,3R,4S,5R)-3,4,5-trihydroxy-2-methoxy-8,8-dimethylnon-6-enamide] | 75 nM | –
6 | CO[C@@H](C(=O)NC1CCc2ccccc2N(Cc2cc(F)cc(F)c2)C1=O)[C@H](O)[C@@H](O)[C@H](O)/C=C/C(C)(C)C (stereo partly shown) [Example 1] | 14 nM | –

From patent publication US7994162B2, “2-alkoxy-3,4,5-trihydroxy-alkylamide-benzazepines, the preparation and use thereof, and compositions containing the same” (Sanofi-Aventis, priority 2006, dated 2011)
